In the NIST ThermoML archive (doi:10.1016/j.tca.2006.01.013):
Numbers after ± are expanded uncertainties.

Assay: xn = mol fraction of the nth substance listed
Details: 101 kPa, Liquid, Vibrating tube method

NCCN [ethane-1,2-diamine] + O
mass density [kg/m3]
Details	323.15 K	328.15 K	333.15 K	338.15 K	343.15 K	348.15 K	353.15 K
x2 = 0.0401	872.83 ± 0.44	868.06 ± 0.44	863.25 ± 0.44	858.43 ± 0.43	853.59 ± 0.43	848.71 ± 0.43	843.82 ± 0.43
x2 = 0.0797	876.97 ± 0.42	872.2 ± 0.42	867.42 ± 0.42	862.6 ± 0.42	857.77 ± 0.42	852.91 ± 0.42	848.01 ± 0.41
x2 = 0.1199	881.48 ± 0.41	876.73 ± 0.41	871.95 ± 0.4	867.15 ± 0.4	862.33 ± 0.4	857.47 ± 0.4	852.59 ± 0.4
x2 = 0.1598	886.3 ± 0.39	881.56 ± 0.39	876.8 ± 0.39	872.01 ± 0.39	867.2 ± 0.39	862.35 ± 0.39	857.48 ± 0.38
x2 = 0.2003	891.39 ± 0.38	886.66 ± 0.37	881.91 ± 0.37	877.13 ± 0.37	872.32 ± 0.37	867.48 ± 0.37	862.61 ± 0.37
x2 = 0.25	897.71 ± 0.36	892.99 ± 0.36	888.25 ± 0.35	883.48 ± 0.35	878.68 ± 0.35	873.85 ± 0.35	868.98 ± 0.35
x2 = 0.2999	904.5 ± 0.34	899.79 ± 0.34	895.05 ± 0.34	890.29 ± 0.34	885.49 ± 0.33	880.67 ± 0.33	875.81 ± 0.33
x2 = 0.3497	911.88 ± 0.32	907.18 ± 0.32	902.45 ± 0.32	897.69 ± 0.32	892.89 ± 0.32	888.07 ± 0.32	883.2 ± 0.32
x2 = 0.3998	919.54 ± 0.3	914.84 ± 0.3	910.11 ± 0.3	905.35 ± 0.3	900.55 ± 0.3	895.73 ± 0.3	890.86 ± 0.3
x2 = 0.4504	927.55 ± 0.28	922.85 ± 0.28	918.12 ± 0.28	913.36 ± 0.28	908.57 ± 0.28	903.74 ± 0.28	898.87 ± 0.28
x2 = 0.5001	935.8 ± 0.27	931.11 ± 0.27	926.38 ± 0.27	921.62 ± 0.27	916.83 ± 0.27	912 ± 0.27	907.14 ± 0.26
x2 = 0.5499	944.38 ± 0.24	939.7 ± 0.24	934.98 ± 0.24	930.23 ± 0.24	925.44 ± 0.24	920.62 ± 0.24	915.76 ± 0.24
x2 = 0.5998	952.77 ± 0.22	948.12 ± 0.22	943.43 ± 0.22	938.7 ± 0.22	933.95 ± 0.22	929.15 ± 0.22	924.32 ± 0.22
x2 = 0.6499	960.7 ± 0.19	956.11 ± 0.19	951.49 ± 0.2	946.83 ± 0.2	942.13 ± 0.2	937.39 ± 0.2	932.61 ± 0.2
x2 = 0.7004	967.91 ± 0.17	963.45 ± 0.17	958.96 ± 0.17	954.42 ± 0.17	949.83 ± 0.17	945.19 ± 0.17	940.53 ± 0.17
x2 = 0.7499	973.34 ± 0.14	969.1 ± 0.15	964.81 ± 0.15	960.46 ± 0.15	956.08 ± 0.15	951.64 ± 0.15	947.14 ± 0.15
x2 = 0.8	976.78 ± 0.12	972.86 ± 0.12	968.88 ± 0.12	964.84 ± 0.12	960.73 ± 0.13	956.56 ± 0.13	952.33 ± 0.13
x2 = 0.84	978.35 ± 0.1	974.76 ± 0.1	971.09 ± 0.11	967.34 ± 0.11	963.52 ± 0.11	959.62 ± 0.11	955.65 ± 0.11
x2 = 0.88	979.3 ± 0.09	976.06 ± 0.09	972.74 ± 0.09	969.32 ± 0.09	965.81 ± 0.09	962.21 ± 0.09	958.53 ± 0.1
x2 = 0.9193	980.41 ± 0.07	977.53 ± 0.07	974.54 ± 0.08	971.43 ± 0.08	968.22 ± 0.08	964.91 ± 0.08	961.5 ± 0.08
x2 = 0.9599	982.91 ± 0.06	980.35 ± 0.06	977.65 ± 0.06	974.83 ± 0.07	971.88 ± 0.07	968.82 ± 0.07	965.65 ± 0.07
